Results on 43 molecules are retold here after PubChem BioAssay (NCI).

In this assay the test system is MDA-MB-468 breast. Description: NCI anticancer screen, dose series, 48 h.

Where “and” joins values, the source holds several entries; their conditions need not be identical. Identical values can stand only once.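 A five-concentration, 48-hour dose response in 96-well plates underlies each endpoint, interpolated linearly between surrounding concentrations. GI50: concentration for 50% inhibition of growth. TGI: total growth inhibition.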

Regarding `O=C(CCCn1c(=O)c2sc3ccccc3c2n2nnc(-c3ccccc3)c12)NCCc1cnc[nH]1`, the GI50 is 1690 nM and the TGI was found to be 3680 nM.

Consider `N#CC(C#N)=Cc1c(-c2ccccc2)[nH]c2ccccc12`, for which the GI50 was 955 nM and the TGI was found to be 5210 nM.

On to `IP(CCCCCCCCCCSc1n(Cc2ccc3ccccc3c2)c(-c2ccccc2)c(-c2ccccc2)[n+]1Cc1ccc2ccccc2c1)(c1ccccc1)(c1ccccc1)c1ccccc1`, for which the GI50 is 267 nM and the TGI came out at 918 nM.

Consider `COc1cc(N2CCN(C(C)C)CC2)ccc1Nc1nc(Nc2cccc3ncccc23)c2cc[nH]c2n1`, for which the GI50 is 3590 nM and the TGI is 8840 nM.

As to `COc1ccc(C[n+]2c3ccccc3n3c4ccc(N)cc4ccc32)c(OC)c1OC`, the GI50 is 275 nM and the TGI was found to be 1420 nM.

For the molecule `O=C(/C=C1\C(=O)N(Cc2ccc([N+](=O)[O-])cc2)c2ccccc21)c1ccc(OCCN2CCCCC2)cc1`, the GI50 was 1110 nM and the TGI stood at 2490 nM.

Regarding `C=C1C(=O)O[C@H]2[C@H]1CC/C(Cn1cc(CNCCc3c[nH]c4ccc(Cl)cc34)nn1)=C\CC[C@@]1(C)O[C@@H]21`, the GI50 is 2190 nM and the TGI turned out to be 9190 nM.

`CCCCN(CCCC)c1ccc(C(=N)c2ccc(N(C)C)cc2)cc1`: the GI50 was 249 nM and the TGI was determined as 966 nM.

`C=CCn1c(=O)c2cnc(Nc3ccc(N4CCN(C)CC4)cc3)nc2n1-c1ccc2c(n1)[C@@](O)(CC)CC2`: the GI50 is 189 nM and the TGI amounted to 698 nM.

As for `NC(=O)c1cc(-c2ccncc2)cc(-c2ccccc2)c1N`, the GI50 was 6440 nM and the TGI is over 25000 nM.

As for `Oc1c(C(Nc2cccc3ccccc23)c2ccccc2)ccc2cccnc12` (stereo unspecified), the GI50 is 1790 nM and the TGI came out at 4310 nM.

For `COc1cc(-c2n/c(=C\c3c(O)[nH]c4ccc(Cl)cc34)cc3c2=Nc2ccccc2-3)cc(OC)c1OC`, the GI50 was 1730 nM and the TGI came out at 4260 nM.

On to `COc1cc(-c2nn(-c3ccc(NC(=O)Nc4ccc(Cl)c(Cl)c4)cc3)cc2-c2ccncc2)ccc1Cl`, for which the GI50 is 2150 nM and the TGI is 5720 nM.

For `CCN(CC)C(=O)CC1=C(C)/C(=C/c2[nH]c(-c3ccc[nH]3)cc2OC)N=C1C`, the GI50 was 572 nM and the TGI was 17900 nM.

`Oc1ccc(CSc2nnc(-c3ccncc3)n2-c2ccccc2)c2cccnc12`: the GI50 was 1350 nM and the TGI worked out at 16100 nM.

Take `O=C(/C=C/c1ccccc1)c1c[nH]c2ccccc2c1=O`: the GI50 is 1800 nM and the TGI turned out to be 4410 nM.

Consider `Cc1ccc(NC(=O)c2ccc(CN3CCN(C)CC3)c(C(F)(F)F)c2)cc1Oc1ccc(-c2[nH]nc3ncnc(N)c23)cc1`, for which the GI50 is 12200 nM and the TGI is 43900 nM.

`Cn1cc(C2=C(c3c4n(c5ccccc35)CCCC4)C(=O)NC2=O)c2ccccc21`: the GI50 was 5310 nM and the TGI was over 25000 nM.

Consider `COc1cc2ccccc2c2cc([N+](=O)[O-])oc12`, for which the GI50 is 1030 nM and the TGI worked out at 2360 nM.

In the case of `CN1CCN(c2ccc(-c3ccc4ncc(C#N)c(Nc5ccc(F)c(Cl)c5)c4c3)cc2)CC1`, the GI50 was 431 nM and the TGI was determined as 2100 nM.

Take `COc1cc(NS(C)(=O)=O)ccc1Nc1c2ccccc2nc2c(C)cccc12`: the GI50 is 236 nM and 298 nM; the TGI is 779 nM and 1670 nM.

Take `COc1cccc(C(=O)Nc2ccc(CN3CCc4nc5cc(OC)c(OC)cc5cc43)cc2)c1`: the GI50 was 4010 nM and the TGI was 31900 nM.

For the molecule `NC(C/[N+]([O-])=N/O)C(=O)O` (stereo unspecified), the GI50 was 7310 nM and the TGI was over 500000 nM.

With `Cc1cc2nc(C(Cl)Cl)nc(-c3cccs3)n2n1`, the GI50 was 314 nM and the TGI was 1540 nM.

Turning to `Cc1cc(Cc2cc(C)c(O)c(C)c2)cc(C)c1O`, the GI50 was 2550 nM and the TGI was determined as 9750 nM.

On to `Cc1cc(N2CCN(C)CC2)nc(NCc2cc(Nc3ccnc4cc(Cl)ccc34)ccc2F)n1`, for which the GI50 is 1670 nM and the TGI worked out at 3590 nM.

`COc1cc(/C=C/C(=O)c2cc(OC)c(OC)c(OC)c2)ccc1Oc1nc(NCCO)nc(N2CCOCC2)n1`: the GI50 is 1710 nM and the TGI stood at 4300 nM.

On to `Cc1onc(-c2c(F)cccc2Cl)c1-c1ncc(-c2ccc(Cl)cc2)o1`, for which the GI50 is 3490 nM and the TGI was over 100000 nM.

As for `COc1cc2c(c(OC)c1OC)C(=O)CC(c1cccc(NC(=O)c3ccc(Br)cc3)c1)O2` (stereo unspecified), the GI50 is 1850 nM and the TGI was 8010 nM.

`COc1cc(/C=N/Nc2ncnc3c2cnn3C(C)C)ccc1O`: the GI50 is 9320 nM and the TGI turned out to be 24600 nM.

`COc1ccc(Cl)cc1Nc1nc(C(F)(F)F)ccc1C(=O)N/N=C/c1ccc([N+](=O)[O-])cc1`: the GI50 was 1130 nM and the TGI came out at 3680 nM.

As for `O=[N+]([O-])c1cc([N+](=O)[O-])c(Cl)c(Cl)c1Cl`, the GI50 is 250 nM and the TGI stood at 723 nM.

`Cc1c(C)c2c(c(C)c1NC(=O)/C=C\C(=O)O)CCC(C)(CCCC(C)CCCC(C)CCCC(C)C)O2` (stereo unspecified): the GI50 was 1990 nM and the TGI was found to be 3980 nM.

As to `COc1ccc2c(c1)[C@]1(C[C@H]1c1ccc3c(/C=C/c4ccc(CN5C[C@@H](C)O[C@@H](C)C5)cc4)n[nH]c3c1)C(=O)N2`, the GI50 is 2990 nM and the TGI was over 92400 nM.

Regarding `O=C(/C=C/C12c3ccccc3C(c3ccccc31)C1C(=O)N(c3ccccc3)C(=O)C12)c1ccc(Cl)cc1` (stereo unspecified), the GI50 is 1880 nM and the TGI came out at 5870 nM.

Turning to `O=C(Nc1ccc(F)cc1)c1cc(-c2ccc(F)cc2F)ccc1O`, the GI50 is 2210 nM and the TGI is 7480 nM.

For the molecule `Cc1cc2cccnc2c2ncccc12`, the GI50 was 2030 nM and the TGI was 5480 nM.

On to `CC1=CC[C@@H]2C(C)(C)C(=O)CC[C@@]2(C)[C@@H]1COc1ccc2ccc(=O)oc2c1`, for which the GI50 was 4830 nM and the TGI was found to be 35900 nM.

Consider `CN(Cc1cnc(N)nc1N)c1ccc(C(=O)O)cc1`, for which the GI50 was over 100000 nM and the TGI was over 100000 nM.

For `CN1CCN(CCCOc2cccc3nc(Nc4ccc(Cl)c(F)c4)ccc23)CC1`, the GI50 was 1720 nM and the TGI came to 3320 nM.

With `COc1ccc(-c2nn(-c3ccc(NC(=O)c4ccc(Cl)c(C(F)(F)F)c4)cc3)cc2-c2ccncc2)cc1Cl`, the GI50 is 1600 nM and the TGI is over 100000 nM.

In the case of `CN(CCC#N)c1ccc(/C=C(\C#N)c2cccc(C(F)(F)F)c2)cc1`, the GI50 is 797 nM and the TGI is over 100000 nM.

In the case of `Cc1oc2nc[nH]c(=O)c2c1C(=O)/C=C/c1ccc(Cl)cc1`, the GI50 was 1380 nM and the TGI came out at 3870 nM.
